Patent US6916820B1, “Neurotrophic substituted pyrimidines” (Krenitsky Pharmaceuticals, Inc., priority 1999, dated 2005)

Columns and labels:
[1] = tested on: choline acetyltransferase (ChAT) activity in PC12 cells; experiment: Choline acetyltransferase (ChAT) assay in NGF-treated PC12 cells (screen for NGF-like activity); format: cell-based, rat; details: 3 days incubation with test compound, compared with NGF alone
Procedure: Cultured PC12 cells (rat adrenal pheochromocytoma from ATCC) have receptors for NGF. Responses include promotion of neurite outgrowth and elevation of choline acetyltransferase (ChAT) (L. A. Green and A. S. Tischler, Cell Neurobiol., 3, 373 (1982)).
The following assay is modified from that described in H L White and P W Scates, Neurochem. Res., 16, 63 (1991). PC12 cells were cultured at 37° C. in RPMI supplemented with HEPES buffer, pH 7.5 (to 10 mM), fetal bovine serum, horse serum, glutamine, penicillin, streptomycin and non-essential amino acids. Cultures were split 1:3 every 3 to 4 days. Exponentially dividing cells were plated into fresh medium on collagen-coated 12-well plastic dishes (10^5 cells/well). After allowing one day for cell attachment, the medium was replaced with low serum medium, with or without test compounds with each condition in triplicate. The medium may contain up to 0.2% ethanol, which was used as a solvent for most compounds tested. Cells were examined for morphological changes using an Olympus IMT-2 inverted research microscope. After 3 days incubation with test compounds, medium was removed and replaced with 0.2 ml of lysis and ChAT assay mixture. The plates were incubated at 37° C. for 2 hours and then placed into a freezer at −20° C. […]
The assay mixture contained 100 mM phosphate, pH 7.4, 0.1% NP-40, 150 mM NaCl, 1.5 mM choline, 10 mM EDTA, 0.1 mM eserine, 0.1 mM acetyl-coenzyme A and about 0.5 uCi (40-70 Ci/mol) [14C]acetyl-coenzyme A in each ml of mixture. […] The vials were centrifuged at 3000 rpm (max.=16 cm) for 15 minutes and then counted in a Beckman LS6500 scintillation counter. […]
The following data were obtained for representative compounds of the present invention which (1) increased the activity of choline acetyltransferase ChAT), (2) enhanced NGF-stimulated neurite outgrowth and/or (3) potentiated or appeared additive with the action of NGF itself. The concentration at which the test compound doubled the ChAT activity over the activity with NGF alone (no test compound) was recorded as the EC2x value: […]

| Structure (SMILES) | melting point [°C] | EC2x (concentration at which the test compound doubled the ChAT activity over the activity with NGF alone) [1] [µM] |
| --- | --- | --- |
| Cl.Nc1ncc(Oc2ccc(Cl)cc2)c(N[C@H]2CC[C@H](O)CC2)n1 | 155 to 156 |  |
| Nc1ncc(Oc2ccc(Cl)cc2)c(N[C@H]2CC[C@H](O)CC2)n1 [Example 3, 2-amino-5-(4-chlorophenoxy)-4-(trans-4-hydroxycyclohexylamino)pyrimidine] | 154 to 155 | 0.4 |
| Cl.Nc1ncc(Oc2ccc(Cl)cc2Cl)c(N[C@H]2CC[C@H](O)CC2)n1 [Example 5, 2-amino-5-(2,4-dichlorophenoxy)-4-(trans-4-hydroxycyclohexylamino)pyrimidine hydrochloride] | 138 to 145 | 1.2 |
| Cl.Nc1ncc(Oc2ccc(Cl)cc2)c(NC2CCC(=O)CC2)n1 [Example 10, 2-amino-5-(4-chlorophenoxy)-4-(4-oxocyclohexylamino)pyrimidine hydrochloride] |  | 0.7 |
